From US5846937A, “Method of using exendin and GLP-1 to affect the central nervous system” (1149336 Ontario Inc., priority 1997, dated 1998)

Tests used:
[1] = test system: Wild-type (+/+), male CD1 mice; experiment: Line test (locomotor activity) after ICV injection, wild-type mice; type: in vivo; conditions: wild-type mice fasted overnight; ICV 5 μl; GLP-1 5 μg, Exendin(9-39) amide 10 μg, Exendin-4 amide 15 μg
Procedure: Male CD1 mice were used for these experiments. Wild-type (+/+), male CD1 mice (approx. 11 weeks old) were obtained from Charles River Canada (Quebec). Mice were acclimatized to the animal facility for several days prior to use in the actual experiments.
(§1) All mice were faster overnight 16 hours prior to the start of the experiment. Mice were lightly anesthetized by placing them in a covered beaker with 800 μl of Methoxyflurane (Metofane, Jannsen Pharmaceuticals) for approximately 3 minutes. Peptides were delivered into the ventricles by ICV injection using a 2.5 mm×30 gauge needle attached to a Hamilton syringe. All test peptides were dissolved in phosphate buffered saline. Mice were given 5 μl ICV injections of the test peptides or saline, following which they were observed closely for 3 hours.
(§2) Following ICV administration of GLP-1 [5 μg/5 μl; Glucagon-like Peptide 1 (7-36) amide, human, lot # AM680, Bachem California, Torrence, Calif.], Exendin(9-39) amide (10 μg/5 μl; lot # ZN136, Bachem California, Torrence, Calif.), Exendin-4 amide (15 μg/5 μl; kit # 506189, Bachem California, Torrence, Calif.), or PBS, mice were placed into individual cages for the period of observation.
(§3) To record food intake, mice were given a pre-weighed (approx. 3 g) amount of rodent chow when all members of a test group appeared fully alert, generally about 20-30 minutes after ICV injection.
(§4) Approximately 15-20 min. after the mice had begun to eat, or no longer than 30 min. following the addition of the pre-weighed rodent chow to the cages, the parameter of arousal/sedation was assessed, namely mice were assessed for locomotor activity by measuring the number of times each animal crossed over a line that was placed in the center of the cage (line test).
(§5) The Locomotor activity was assessed for 3×30 min consecutive periods. The data for the first 30 minutes observation period is shown in the accompanying FIG. 1.

[2] = test system: GLP-1R^(-/-) knockout mice; experiment: Line test (locomotor activity) after ICV injection, GLP-1R knockout mice; type: in vivo; conditions: GLP-1R knockout mice fasted overnight; ICV 5 μl; GLP-1 5 μg, Exendin(9-39) amide 10 μg, Exendin-4 amide 15 μg
Procedure: GLP-1R^(-/-) knockout age-matched male mice, produced as described above in example 1, were bred in the Toronto Hospital animal facility. All mice were fed a diet of ad libitum access to standard laboratory rat chow and tap water.
as §1, with “saline.” for “saline. Mice were given 5 μl ICV injections of the test peptides or saline, following which they were observed closely for 3 hours.”
as §2, §3, §4, §5

rats = conditions: ICV administration; cited from earlier work
normal wildtype mice = experiment: Dose response experiment, line test after ICV injection, non-fasted mice; type: in vivo; conditions: for mean number of line crossings: not fasted, saline control 66.8
Procedure: A dose response experiment was performed to compare the specific activities of exendin and GLP-1 peptides. Additionally, this experiment was designed to eliminate the possibility that the sedative response was connected to any feeding behavior. Therefore, mice were not fasted prior to the experiment, and were instead allowed food and water ad libitum throughout their dark cycle. At the beginning of the light cycle, food was removed and peptides administered. Exendin or GLP-1 peptide, obtained as described above, were each injected ICV into normal wildtype mice at a concentration of 0.5, 1.0, 5.0 or 10.0 μg per 5 μl, and locomotor activity assessed as above.

Substance | locomotor activity (number of line cross events) [1] | locomotor activity / lethargy [2] | food intake / feeding (rats) | mean number of line crossings (normal wildtype mice; 0.5 μg per 5 μl ICV (lowest dose)) | potency relative to GLP-1 on a weight (μg) basis (normal wildtype mice; sedative effect in the mammalian central nervous system, ICV) | mean number of line crossings (normal wildtype mice; 10 μg per 5 μl ICV (highest dose)) | locomotor activity (rats)
Exendin(9-39) amide | greatly increased locomotor activity | induced lethargy | doubled food intake | – | – | – | –
Exendin-4 amide [exendin 4] | clear and marked decreased number of line cross events | induced lethargy and reduced movement | – | 11.5 | at least 20 fold | – | –
Glucagon-like Peptide 1 (7-36) amide [GLP-1] | exhibited the same tendency | did not | inhibits feeding | – | – | 24 | reduction in locomotor activity
